Data set [1] relates to T cells. The experiment in a line: CD69 expression after PMA activation (flow cytometry). The format is cell-based. Particulars: all energies tested (22, 33 and 44 J/mLRBC).
Data set [2] deals with Hepatitis A (HAV). The experiment in a line: Virus inactivation in whole blood. The format is cell-based. The note with it: as a function of illumination energy.
Data set [3] has as its system vesicular stomatitis virus (VSV). Type of data set: cell-based. The note with it: as a function of illumination energy.
Data set [4] deals with infectious bovine rhinotracheitis virus (IBR). Kind of data set: Virus inactivation in whole blood. The note with it: as a function of illumination energy. Type of data set: cell-based.
Data set [5] relates to red blood cells. Kind of data set: ATP level in stored red blood cells. Type of data set: cell-based. The note with it: increased energy levels. As to the method: ATP level or concentration was measured in red blood cells separated from pathogen inactivated whole blood. ATP concentration is a measure of the amount of ATP present in the cells at a given time.
In data set [6] the test system is red blood cells. The experiment in a line: Mean osmotic fragility of stored red blood cells. The note with it: stored for 42 days; vs untreated cells. Type of data set: cell-based. Here is the method:
Osmotic fragility during storage of red blood cells separated from pathogen inactivated whole blood was measured. The normal red blood cell is a relatively impermeable biconcave disc which maintains osmotic equilibrium with the surrounding medium. As the surrounding medium becomes hypotonic, fluid will be taken into the cell to maintain stability. Eventually under very hypotonic conditions the cell will fill to capacity and rupture. Red blood cells with damaged membranes have a decreased capacity to expand, and will rupture in mildly hypotonic conditions that fail to lyse normal red cells. […] Mean osmotic fragility (MOF) is a measure of red blood cell membrane fragility. The higher the MOF, the more fragile the red blood cells are. MOF is the concentration of NaCl where 50% of the red blood cells hemolyze.

Data set [7] relates to platelets. Kind of data set: Platelet quality during storage. The format is cell-based. Here is the method: Platelet quality is assessed with measurements of pH, swirl, lactate production rate and glucose consumption rate on Days 1 and 5.
Platelets were separated from pathogen inactivated whole blood and markers of platelet quality were measured.

Data set [8] has as its system white blood cells (WBCs). Kind of data set: WBC functionality, all tested stimuli (summary statements). Type of data set: cell-based.
The test system of data set [9] is white blood cells (WBCs). The note with it: for % inhibition of proliferation: Allorecognition: treated responders.
Where [10] appears, read: over 5 days of storage at higher energy levels.

Several values for one entry are separate records, joined by “and”; a condition that tells them apart may be missing. Equal entries are not always repeated. Where two headings read alike, the source gives them in different places.

As for `Cc1cc2nc3c(=O)[nH]c(=O)nc-3n(C[C@H](O)[C@H](O)[C@H](O)CO)c2cc1C` [riboflavin, 7,8-dimethyl-10-ribityl isoalloxazine], the “expression of CD69 on T cells after PMA activation” value in data set [1] is reported as “inhibited expression of CD69”. The “log reduction of virus” value in data set [2], in data set [3] and in data set [4] was “increases linearly with respect to energy” in each case. Further, in [5], the “total concentration of ATP in red blood cells” value is “decrease the total concentration of ATP”. Further, in data set [6], the “osmotic fragility (MOF) of red blood cells” value is given as “slightly more fragile than untreated cells”. In addition, the “platelet carbon dioxide production” value in data set [7] (setting [10]) is recorded as “appears to decrease”. Further, the platelet glucose consumption result in data set [7] (setting [10]) was “appears to decrease”. In [7] (setting [10]), the platelet lactate production result is on record as “appears to increase”. For the same molecule, the platelet oxygen consumption result in [7] (setting [10]) is “appears to increase”. For the same molecule, the “platelet pH” value in data set [7] (over 5 days of storage, treated and untreated) was “remains the same”. Also, the “inhibition of WBC proliferation / decrease of proliferative response” value in [8] (all tested stimuli and antigen presentation, all energies tested, stimulated control vs stimulated treated cells) was 93-99% and > 90%. The “functional inactivation of white blood cells in whole blood” value in data set [8] (riboflavin and light) is reported as “functionally inactivates the white blood cells”. Further, in data set [8] (riboflavin+UV light at all energies tested), the “proliferation in response to PHA, anti-CD3/CD28 and allogeneic stimulator cells” value is recorded as “inhibited proliferation”. Moreover, the “% inhibition of proliferation” value is reported as 95 ± 3% in data set [9] (22 J/mlRBC), 95 ± 2% in data set [9] (33 J/mlRBC) and 96 ± 2% in data set [9] (44 J/mlRBC). The “proliferation of treated WBCs in response to allogeneic stimulator cells” value in [9] (treated WBCs as responder cells in MLC) is reported as “not able to proliferate”.

(Values after US20080299538A1, “Pathogen Inactivation of Whole Blood” (CARIDIANBCT BIOTECHNOLOGIES, LLC, priority 2003, published 2008).)
